Assays:
[1] = system: NIH-3T3 cells transfected with c-met receptor; test: Protection against adriamycin-induced apoptosis, c-met transfected NIH-3T3 cells, MTT assay; format: cell-based; conditions: pre-treated 48 hr with HGF (50 ng/ml) or compound (12 mg/ml), adriamycin (15 mM) 2 hr
Experimental: b. Protection from apoptosis in NIH-3T3 cells transfected with c-met receptor.
NIH3T3 cells were pre-treated with HGF (50 ng/ml) or compound (12 mg/ml) for 48 hr. Cells were then exposed to adriamycin (ADR) (15 mM) for 2 hr, and post-incubated for 48 hr before performing the MTT assay. […] There was no protection from apoptosis by either compound in non-transfected cells lacking the c-met receptor.

[2] = system: isolated aortic rings; test: Aortic ring assay; format: cell-based, Sprague Dawley rats; conditions: instant compound or HGF (100 ng/ml), day 5
From the text: a. Aortic ring assay. Thoracic artery rings from rats are embedded in Matrigel and grown for 5 days in the presence or absence of HGF/SF or compounds of the invention. Treatment with compounds of the invention causes an increased outgrowth from the rings similar to that seen with HGF/SF.
Thoracic aortas from 100 gm Sprague Dawley rats are isolated under sterile conditions and cut into rings of approximately 0.8 to 1.0 mm in length. The rings are embedded in Matrigel in the bottom of 48 well culture plates and instant compound […] or HGF (100 ng/ml, as positive control) was added in […] of serum-free tissue culture medium (Human endothelial-SFM basal growth medium plus 1% bovine serum albumin). An inventive compound or HGF was replenished on day 4; on day 5, the rings were photographed and examined for outgrowths. […] Without wishing to be bound to any particular theory, we propose that inventive compounds are capable of activating proliferation of cells required for angiogenesis.

[3] = system: MDCK cells; test: MTT cell viability assay, adriamycin-induced apoptosis; format: cell-based
From the text: (§1) a. HGF/SF and instant compounds have significant anti-apoptotic activity in cultured cell lines.
(§2) Using the MTT cell viability assay we tested the ability of compounds of the invention to protect cells from adriamycin-induced apoptosis. […] Adriamycin alone decreased cell viability to 56% of untreated cells.

[4] = system: human hepatic stellate cell line LX2; test: Antifibrotic activity: collagen I mRNA in LX2 cells, real time PCR; format: cell-based; conditions: serum starved LX2 cells, 24 hours; HGF 100 ng/ml, compounds 12 to 24 ug/ml
Experimental: a. Antifibrotic Activity in Hepatic Stellate Cells. Serum starved (activated) LX2 cells (an immortalized human hepatic stellate cell line) that are treated with HGF/SF or a compound of the invention show a decrease in collagen I mRNA expression, as well as expression of other fibrotic marker genes, related to significant antifibrotic activity.
The antifibrotic effects of HGF and compounds of the invention in the immortalized human hepatic stellate cell line LX2 are determined. Serum starved LX2 cells are treated for 24 hours with HGF at 100 ng/ml and compounds of the invention at doses ranging from 12 to 24 ug/ml. RNA is then isolated and real time PCR was performed to evaluate changes in collagen I mRNA. […] Additional experiments to determine the effects of HGF and compounds on TGFb-1, bPDGF-R and MMP-1 mRNA are also performed to more completely characterize activities of these compounds which can contribute to their antifibrotic effects.

[5] = system: HUVECs; test: Nitric oxide production in HUVECs, DAF 2-DA fluorescence; format: cell-based, human; conditions: 24 hours
Experimental: c. […] HUVECs are incubated with either vehicle, HGF/SF, instant compounds, or SNAP for 24 hours, loaded with the nitric oxide-sensitive fluorescence indicator DAF 2-DA and imaged under a laser scanning confocal microscope.
HGF and compounds of the invention may exert their anti-apoptotic effects in part through stimulation of nitric oxide production. We incubated HUVECs with either HGF or instant compounds and measured NO production using the nitric oxide-sensitive fluorescence indicator DAF 2-DA. […] Without wishing to be bound to any particular theory, we propose that the anti-apoptotic activities of both HGF and compounds of the invention may be mediated by nitric oxide production.

[6] = system: C57BL/6 mice; conditions: earlier studies with HGF; cited from earlier work
[7] = MTT cell viability assay, adriamycin-induced apoptosis; format: cell-based; conditions: dog, MDCK cells, of untreated cells, read-out: cell viability, adriamycin alone
From the text: as §1, §2

Row | Compound | protection from adriamycin-induced apoptosis (MTT) [1] | endothelial cell outgrowth from aortic rings [2] | cell viability after pretreatment, then adriamycin ([3]; adriamycin-induced apoptosis) [%] | cell viability, compound or HGF alone ([3]; without adriamycin) | decrease in collagen I mRNA expression [4] [%] | nitric oxide production (DAF 2-DA fluorescence) [5] | nitric oxide production (DAF 2-DA fluorescence) ([5]; listed as HGF/SF) | vessel area [6] | viability [7] [%]
1 | HGF: pleiotropic growth factor that stimulates cell growth, cell motility, morphogenesis and angiogenesis | protect the cells from adriamycin-induced apoptosis | stimulated equivalent endothelial cell outgrowth | 94 | no effect on cell viability | 70 | stimulate nitric oxide production | significant increase in fluorescence | dose-dependently increases the vessel area | –
2 | CC(=O)N[C@@H](C(=O)O)C(C)(C)SN=O (racemic) [SNAP, reference compound] | – | – | – | – | – | significant increase in fluorescence | – | – | –
3 | COc1cccc2c1C(=O)c1c(O)c3c(c(O)c1C2=O)C[C@@](O)(C(=O)CO)C[C@@H]3O[C@H]1C[C@H](N)[C@H](O)[C@H](C)O1 [Adriamycin, reference compound] | – | – | – | – | – | – | – | – | 56
